Results taken from PubChem BioAssay (NCI).
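Briefly, cells in 96-well plates were exposed to five compound concentrations for 48 h, and endpoints were estimated by linear interpolation. The concentration for 50% growth inhibition is given as GI50. TGI marks complete inhibition of growth.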

Key:
Experiment in all cases: growth of human tumour cells (NCI), 48 h
NCI-H460 lung = system: NCI-H460 lung
NCI-H522 lung = system: NCI-H522 lung
HS 578T breast = system: HS 578T breast
DU-145 prostate = system: DU-145 prostate
UACC-62 melanoma = system: UACC-62 melanoma
CAKI-1 renal = system: CAKI-1 renal
A498 renal = system: A498 renal
HCT-116 colon = system: HCT-116 colon
OVCAR-3 ovarian = system: OVCAR-3 ovarian
SK-MEL-28 melanoma = system: SK-MEL-28 melanoma
CCRF-CEM leukemia = system: CCRF-CEM leukemia
NCI-H23 lung = system: NCI-H23 lung
HOP-62 NSCLC = system: HOP-62 NSCLC
SNB-75 CNS = system: SNB-75 CNS
TK-10 renal = system: TK-10 renal
SN12C renal = system: SN12C renal
K-562 leukemia = system: K-562 leukemia
OVCAR-5 ovarian = system: OVCAR-5 ovarian
SF-268 CNS = system: SF-268 CNS
T-47D breast = system: T-47D breast
IGROV1 ovarian = system: IGROV1 ovarian
BT-549 breast = system: BT-549 breast
U251 CNS = system: U251 CNS
EKVX NSCLC = system: EKVX NSCLC
OVCAR-8 ovarian = system: OVCAR-8 ovarian
SNB-19 CNS = system: SNB-19 CNS
SK-OV-3 ovarian = system: SK-OV-3 ovarian
SF-539 CNS = system: SF-539 CNS
A549 NSCLC = system: A549 NSCLC

`O=C(CCCCCCCn1cc(-c2cccnc2)nn1)Nc1ccccc1-c1ccccc1` was tested, and the GI50 (NCI-H460 lung) was 0.674 µM, the TGI (NCI-H460 lung) was over 100 µM and the GI50 (NCI-H522 lung) was 0.0508 µM. The GI50 (HS 578T breast) was 7.22 µM, the TGI (HS 578T breast) was over 100 µM and the GI50 (DU-145 prostate) was 0.569 µM. For the same compound, the TGI (DU-145 prostate) was over 100 µM, the GI50 (UACC-62 melanoma) was 9.68 µM and the TGI (UACC-62 melanoma) was 47.3 µM. The GI50 (CAKI-1 renal) was 1.29 µM, the TGI (CAKI-1 renal) was over 58.4 µM and the GI50 (A498 renal) was 13.7 µM. It also gave a TGI (A498 renal) of over 86.1 µM, a GI50 (HCT-116 colon) of 0.0361 µM and a TGI (HCT-116 colon) of over 32.9 µM. For the same compound, the GI50 (OVCAR-3 ovarian) was 5.72 µM, the TGI (OVCAR-3 ovarian) was over 100 µM and the GI50 (SK-MEL-28 melanoma) was 13.2 µM. The TGI (SK-MEL-28 melanoma) was over 95 µM, the GI50 (CCRF-CEM leukemia) was 0.435 µM and the TGI (CCRF-CEM leukemia) was over 100 µM. It also gave a GI50 (NCI-H23 lung) of 13.8 µM, a TGI (NCI-H23 lung) of over 100 µM and a GI50 (HOP-62 NSCLC) of 26.2 µM. The TGI (HOP-62 NSCLC) was over 100 µM, the GI50 (SNB-75 CNS) was 29.8 µM and the TGI (SNB-75 CNS) was over 100 µM. It also gave a GI50 (TK-10 renal) of 17.4 µM, a TGI (TK-10 renal) of over 100 µM and a GI50 (SN12C renal) of 0.0475 µM. It also gave a TGI (SN12C renal) of over 100 µM, a GI50 (K-562 leukemia) of 0.0633 µM and a TGI (K-562 leukemia) of 44.7 µM. It also gave a GI50 (OVCAR-5 ovarian) of 0.422 µM, a TGI (OVCAR-5 ovarian) of over 100 µM and a GI50 (SF-268 CNS) of 20.4 µM. It also gave a TGI (SF-268 CNS) of over 100 µM, a GI50 (T-47D breast) of 1.44 µM and a TGI (T-47D breast) of 28 µM. It also gave a GI50 (IGROV1 ovarian) of 0.272 µM, a TGI (IGROV1 ovarian) of over 100 µM and a GI50 (BT-549 breast) of 1.44 µM. For the same compound, the TGI (BT-549 breast) was 25.6 µM, the GI50 (U251 CNS) was 0.22 µM and the TGI (U251 CNS) was over 100 µM. The GI50 (EKVX NSCLC) was 10.5 µM, the TGI (EKVX NSCLC) was over 100 µM and the GI50 (OVCAR-8 ovarian) was 0.0437 µM. It also gave a TGI (OVCAR-8 ovarian) of 27.9 µM, a GI50 (SNB-19 CNS) of 1.74 µM and a TGI (SNB-19 CNS) of over 100 µM. For the same compound, the GI50 (SK-OV-3 ovarian) was 12.5 µM, the TGI (SK-OV-3 ovarian) was over 100 µM and the GI50 (SF-539 CNS) was 0.0522 µM. For the same compound, the TGI (SF-539 CNS) was over 78.8 µM, the GI50 (A549 NSCLC) was 1.15 µM and the TGI (A549 NSCLC) was over 100 µM.
